Measurements from article PMC6328172, “5-HT2 receptor binding, functional activity and selectivity in N-benzyltryptamines” (PLoS ONE, 2019).
Where two headings read alike, the source gives them in different places.

Key:
human 5-HT2B receptor = human 5-HT2B receptor (Homo sapiens, UniProt P41595); assay: Competition binding to the human 5-HT2B receptor ([3H]LSD, CHO-5-HT2B membranes)
human 5-HT2C receptor [1] = molecular target: T1, human 5-HT2C receptor (Homo sapiens, UniProt P28335); assay: Ca2+ mobilization in HeLa h5-HT2C cells; assay type: cell-based; conditions: for EC50: Ca2+ mobilization, no unit in the table, nM, read-out: 5-HT2C EC50 (in parentheses) (converted); for Emax: HeLa, read-out: 5-HT2C % Emax; for Selectivity 5-HT2C/2A (functional, in parentheses): from EC50 values, Table 2
T1 construct: expressed in transfected cells; host or cells: HeLa (HeLa-5-HT2C cell line)
T1 sequence (P28335 33-458): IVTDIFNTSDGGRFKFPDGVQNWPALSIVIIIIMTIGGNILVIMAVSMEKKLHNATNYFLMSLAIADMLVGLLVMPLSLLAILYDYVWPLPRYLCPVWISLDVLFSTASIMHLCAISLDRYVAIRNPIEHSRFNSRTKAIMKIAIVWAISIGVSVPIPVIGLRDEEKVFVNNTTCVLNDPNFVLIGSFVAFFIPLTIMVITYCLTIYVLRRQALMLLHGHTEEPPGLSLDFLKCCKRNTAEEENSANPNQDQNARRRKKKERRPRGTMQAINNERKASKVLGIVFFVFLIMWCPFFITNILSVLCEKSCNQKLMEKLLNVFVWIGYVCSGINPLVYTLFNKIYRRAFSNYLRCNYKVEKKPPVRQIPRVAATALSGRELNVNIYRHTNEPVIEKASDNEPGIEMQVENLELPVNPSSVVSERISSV

human 5-HT2C receptor [2] = molecular target: T1, human 5-HT2C receptor; assay: Competition binding to the human 5-HT2C receptor ([3H]mesulergine, HeLa-5-HT2C membranes); conditions: for Selectivity 5-HT2C/2A (binding, in parentheses): from Ki values, Table 1; for Ki: human receptor, [3H]mesulergine displacement, no unit in the table, nM, read-out: 5-HT2C Ki (in parentheses) (converted); for inhibition at 10 µM: values marked *
human 5-HT2A receptor [3] = molecular target: T2, human 5-HT2A receptor (Homo sapiens, UniProt P28223); assay: Ca2+ mobilization in CHO h5-HT2A cells; assay type: cell-based; conditions: for EC50: Ca2+ mobilization; for Selectivity 5-HT2A/2C (functional): from EC50 values, Table 2; for Emax: relative efficacy, % of response to 5-HT; for times less potent than its 5-methoxytryptamine analog, h5-HT2A functional assay: 3 vs 38, 5 vs 39
T2 construct: expressed in transfected cells; host or cells: CHO (CHO-5-HT2A cell line)
T2 sequence (P28223 whole entry): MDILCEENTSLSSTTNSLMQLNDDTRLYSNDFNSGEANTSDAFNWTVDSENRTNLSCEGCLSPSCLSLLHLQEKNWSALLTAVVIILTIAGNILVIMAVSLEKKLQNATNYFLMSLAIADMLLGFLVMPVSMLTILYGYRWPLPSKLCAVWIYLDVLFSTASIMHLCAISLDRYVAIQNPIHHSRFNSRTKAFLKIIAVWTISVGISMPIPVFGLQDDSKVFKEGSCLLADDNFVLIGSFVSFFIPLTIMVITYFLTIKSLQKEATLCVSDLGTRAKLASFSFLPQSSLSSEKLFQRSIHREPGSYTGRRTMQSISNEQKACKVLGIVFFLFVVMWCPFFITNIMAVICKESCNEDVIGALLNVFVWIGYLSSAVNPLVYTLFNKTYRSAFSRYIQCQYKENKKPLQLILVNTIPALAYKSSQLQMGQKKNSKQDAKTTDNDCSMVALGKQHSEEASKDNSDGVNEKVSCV

human 5-HT2A receptor [4] = molecular target: T2, human 5-HT2A receptor; assay: Competition binding to the human 5-HT2A receptor ([3H]ketanserin, CHO-5-HT2A membranes); conditions: for Selectivity 5-HT2A/2C (binding): from Ki values, Table 1; for Ki: human receptor, [3H]ketanserin displacement, no unit in the table, nM, read-out: 5-HT2A Ki (in parentheses) (converted); for inhibition at 10 µM: values marked *
[5] = no unit in the table, nM, read-out: 5-HT2A EC50 (in parentheses) (converted)

Sequence of human 5-HT2B receptor (P41595 whole entry): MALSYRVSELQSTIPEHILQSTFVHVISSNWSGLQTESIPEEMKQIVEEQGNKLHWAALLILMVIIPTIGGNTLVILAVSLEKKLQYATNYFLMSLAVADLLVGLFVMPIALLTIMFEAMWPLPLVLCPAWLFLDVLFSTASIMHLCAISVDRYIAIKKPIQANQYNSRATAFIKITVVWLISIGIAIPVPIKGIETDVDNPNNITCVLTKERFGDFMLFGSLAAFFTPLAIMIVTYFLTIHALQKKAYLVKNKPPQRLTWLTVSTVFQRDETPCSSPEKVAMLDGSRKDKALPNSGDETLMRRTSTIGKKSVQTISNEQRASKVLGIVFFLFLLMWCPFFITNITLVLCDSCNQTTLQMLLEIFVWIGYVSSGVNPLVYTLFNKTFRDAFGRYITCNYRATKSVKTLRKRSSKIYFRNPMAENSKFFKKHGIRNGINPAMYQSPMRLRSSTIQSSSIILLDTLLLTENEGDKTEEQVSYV

SMILES | Ki (human 5-HT2B receptor) | EC50 (human 5-HT2C receptor [1]) | Emax (human 5-HT2C receptor [1]) | Selectivity 5-HT2C/2A (functional, in parentheses) (human 5-HT2C receptor [1]) | Selectivity 5-HT2C/2A (binding, in parentheses) (human 5-HT2C receptor [2]) | Ki (human 5-HT2C receptor [2]) | EC50 (human 5-HT2A receptor [3]; [5]) | Selectivity 5-HT2A/2C (functional) (human 5-HT2A receptor [3]) | Emax (human 5-HT2A receptor [3]) | Selectivity 5-HT2A/2C (binding) (human 5-HT2A receptor [4]) | Ki (human 5-HT2A receptor [4]) | times less potent than its 5-methoxytryptamine analog, h5-HT2A functional assay (human 5-HT2A receptor [3]) | EC50 (human 5-HT2A receptor [3]; pEC50 ± SEM, read-out: 5-HT2A pEC50 (converted)) | inhibition at 10 µM (human 5-HT2A receptor [4]) | inhibition at 10 µM (human 5-HT2C receptor [2])
c1ccc(CNCCc2c[nH]c3ccccc23)cc1 [Compound 1, N-Benzyl-[2-(1H-indol-3-yl)ethyl]amine] | 100 nM | 50.1 nM | 121 ± 6.58% | 3.24 | 1.33 | 186 nM | 162 nM | 0.31 | 61.6 ± 5.17% | 0.75 | 245 nM | – | – | – | –
Oc1ccccc1CNCCc1c[nH]c2ccccc12 [Compound 2, N-(2-Hydroxybenzyl)-[2-(1H-indol-3-yl)ethyl]amine] | 67.6 nM | 33.9 nM | 85.8 ± 2.83% | 5.89 | 1.37 | 85.1 nM | 200 nM | 0.17 | 94.1 ± 4.59% | 0.73 | 115 nM | – | – | – | –
COc1ccccc1CNCCc1c[nH]c2ccccc12 [Compound 3, N-(2-Methoxybenzyl)-[2-(1H-indol-3-yl)ethyl]amine] | 46.8 nM | 35.5 nM | 94.2 ± 3.75% | 43.7 | 0.39 | 224 nM | 1550 nM | 0.023 | 63 ± 1.95% | 2.56 | 89.1 nM | several hundred times less potent | 1550 nM | – | –
Cc1ccccc1CNCCc1c[nH]c2ccccc12 [Compound 4, N-(2-Methylbenzyl)-[2-(1H-indol-3-yl)ethyl]amine] | 339 nM | 138 nM | 107 ± 2.9% | 14.5 | – | 661 nM | 2000 nM | 0.069 | 44.4 ± 2.79% | – | – | – | – | 48 ± 1% | –
Clc1ccccc1CNCCc1c[nH]c2ccccc12 [Compound 5, N-(2-Chlorobenzyl)-[2-(1H-indol-3-yl)ethyl]amine] | 23.4 nM | 195 nM | 87.1 ± 4.96% | 2.40 | 0.49 | 24.6 nM | 468 nM | 0.42 | 25.5 ± 1.16% | 2.04 | 12 nM | ~40 times | – | – | –
Brc1ccccc1CNCCc1c[nH]c2ccccc12 [Compound 6, N-(2-Bromobenzyl)-[2-(1H-indol-3-yl)ethyl]amine] | 74.1 nM | 234 nM | 109 ± 5.2% | 9.55 | 0.57 | 339 nM | 2240 nM | 0.10 | 29.3 ± 5.93% | 1.74 | 195 nM | – | – | – | –
Oc1cccc(CNCCc2c[nH]c3ccccc23)c1 [Compound 7, N-(3-Hydroxybenzyl)-[2-(1H-indol-3-yl)ethyl]amine] | 37.1 nM | 6.76 nM | 96.3 ± 4.02% | 8.32 | 2.8 | 25.7 nM | 56.2 nM | 0.12 | 52.8 ± 4.63% | 0.36 | 75.9 nM | – | – | – | –
Cc1cccc(CNCCc2c[nH]c3ccccc23)c1 [Compound 8, N-(3-Methylbenzyl)-[2-(1H-indol-3-yl)ethyl]amine] | 17 nM | 29.5 nM | 82.6 ± 2.11% | 2.09 | 0.20 | 74.1 nM | 61.7 nM | 0.48 | 33 ± 2.11% | 5.10 | 14.4 nM | – | – | – | –
Fc1cccc(CNCCc2c[nH]c3ccccc23)c1 [Compound 9, N-(3-Fluorobenzyl)-[2-(1H-indol-3-yl)ethyl]amine] | 126 nM | 112 nM | 112 ± 4.84% | 3.47 | 1.19 | 214 nM | 389 nM | 0.29 | 33.8 ± 4.01% | 0.84 | 257 nM | – | – | – | –
Clc1cccc(CNCCc2c[nH]c3ccccc23)c1 [Compound 10, N-(3-Chlorobenzyl)-[2-(1H-indol-3-yl)ethyl]amine] | 34.7 nM | 282 nM | 117 ± 4.82% | 0.43 | 0.46 | 97.7 nM | 120 nM | 2.34 | 57.9 ± 4.15% | 2.17 | 44.7 nM | – | – | – | –
Brc1cccc(CNCCc2c[nH]c3ccccc23)c1 [Compound 11, N-(3-Bromobenzyl)-[2-(1H-indol-3-yl)ethyl]amine] | 21.9 nM | 55 nM | 107 ± 2.78% | 1.07 | – | 75.9 nM | 58.9 nM | 0.93 | 32.6 ± 1.64% | – | 8.13 nM | – | – | – | –
Oc1ccc(CNCCc2c[nH]c3ccccc23)cc1 [Compound 12, N-(4-Hydroxybenzyl)-[2-(1H-indol-3-yl)ethyl]amine] | 490 nM | 145 nM | 99.7 ± 2.81% | – | 0.92 | 1000 nM | – | – | – | 1.09 | 912 nM | – | – | – | –
COc1ccc(CNCCc2c[nH]c3ccccc23)cc1 [Compound 13, N-(4-Methoxybenzyl)-[2-(1H-indol-3-yl)ethyl]amine] | – | 8.32 nM | 91.4 ± 2.03% | – | – | 355 nM | 45.7 nM | – | 108 ± 2.78% | – | 457 nM | – | – | – | –
Cc1ccc(CNCCc2c[nH]c3ccccc23)cc1 [Compound 14, N-(4-Methylbenzyl)-[2-(1H-indol-3-yl)ethyl]amine] | 74.1 nM | 1200 nM | 100 ± 5.36% | – | 1.23 | 331 nM | – | – | – | 0.81 | 417 nM | – | – | – | –
O=[N+]([O-])c1ccc(CNCCc2c[nH]c3ccccc23)cc1 [Compound 18, N-(4-Nitrobenzyl)-[2-(1H-indol-3-yl)ethyl]amine] | 200 nM | 525 nM | 92 ± 8.69% | – | 1.85 | 1410 nM | – | – | – | 0.54 | 2630 nM | – | – | – | –
COc1cccc(CNCCc2c[nH]c3ccccc23)c1OC [Compound 20, N-(2,3-Dimethoxybenzyl)-[2-(1H-indol-3-yl)ethyl]amine] | 195 nM | 3630 nM | 117 ± 9.18% | – | 1.37 | 1120 nM | – | – | – | 0.73 | 1510 nM | – | – | – | –
Oc1ccc(Br)cc1CNCCc1c[nH]c2ccccc12 [Compound 26, N-(5-Bromo-2-hydroxybenzyl)-[2-(1H-indol-3-yl)ethyl]amine] | – | 708 nM | 108 ± 2.88% | – | 0.42 | 724 nM | – | – | – | 2.39 | 309 nM | – | – | – | –
O=[N+]([O-])c1ccc(O)c(CNCCc2c[nH]c3ccccc23)c1 [Compound 30, N-(5-Nitro-2-hydroxybenzyl)-[2-(1H-indol-3-yl)ethyl]amine] | 891 nM | – | – | – | – | – | – | – | – | – | – | – | – | 8 ± 4% | 31 ± 4%
COc1ccc(CNCCc2c[nH]c3ccccc23)c(OC)c1 [Compound 32, N-(2,4-Dimethoxybenzyl)-[2-(1H-indol-3-yl)ethyl]amine] | 234 nM | 240 nM | 117 ± 4.59% | – | 2.44 | 269 nM | – | – | – | 0.41 | 661 nM | – | – | – | –
Oc1c(Br)cc(Br)cc1CNCCc1c[nH]c2ccccc12 [Compound 35, N-(3,5-Dibromo-2-hydroxybenzyl)-[2-(1H-indol-3-yl)ethyl]amine] | 6030 nM | – | – | – | – | – | – | – | – | – | – | – | – | 12 ± 4% | 26 ± 4%
NCCc1c[nH]c2ccccc12 [Tryptamine] | 110 nM | 1.17 nM | 108 ± 3.43% | – | – | 95.5 nM | – | – | 97.6 ± 2.34% | – | – | – | – | – | –
